For assay [1], the system named is calf thymus DNA. The assay is described as follows: Equilibrium dialysis dark binding (association constant). The conditions noted are these: for Ka: 4° C., five days, dark, isopsoralen:DNA base pair 1:15. The protocol: Equilibrium Dialysis was used to determine the association (“dark binding”) constants of AMIP, AMDMIP and MIP with calf thymus DNA. The tritium labelled isopsoralens were used for the experiment. The method was a modification of that of Isaacs et al. Biochemistry 16, 1058-1066 (1977).
Spectrapor 2 dialysis tubing (Spectrum) was pre-treated by boiling in saturated sodium bicarbonate then rinsed thoroughly with double distilled water. Calf thymus DNA (Sigma) was prepared at a concentration of 50 μg/ml in 1×TE. The samples were prepared by placing 1.0 ml of the DNA solution inside the bag and using enough isopsoralen to provide an isopsoralen:DNA base pair ratio of 1:15. The samples were prepared with the tritiated isopsoralen (“Drug”) placed either inside or outside of the dialysis bag (each sample was placed in a scintillation vial containing a small magnetic stir bar). The samples were stirred at 4° C. for five days in the dark. After this period the bags were removed, opened, and the radioactivity inside and outside the bag determined by scintillation counting. The concentration of the DNA was determined by measuring optical density at 260 nm. The […] constant (Ka) was calculated from this information (Table 9). Preparing the samples in duplicate with the isopsoralen both inside and outside the dialysis bag provided a check that the system had come to equilibrium at the end of the dialysis period (the amount of isopsoralen inside and outside the bag at equilibrium should be, and was, the same in both cases).
The association constant, Ka is defined here as [formula]
for the reaction P+DNA P:DNA where P=free drug in solution, DNA=DNA binding site for the drug, and P:DNA=drug associated with the DNA. The following summarizes the Ka values determined for the compounds: […]
In general terms: In equilibrium dialysis free small molecules cross a membrane that holds back macromolecules.

Assay [2] has as its system calf thymus DNA. The assay is described as follows: Binding of photoproduct to nucleic acid (dark reaction after pre-irradiation). On the procedure: The nucleic acid binding properties of photoproduct were investigated with calf thymus DNA. 200 μg/ml of ^3H-AMDMIP (1×10^5 CPM/ml) in Taq buffer was irradiated at room temperature with either the CE-III device or the PTI device. This irradiation was performed for 15 minutes in the absence of nucleic acid. Following the irradiations, 200 μl of the irradiated solution was mixed with 200 μl of 1000 μg/ml DNA solution in Taq buffer. Several identical samples were prepared in this manner. One set of samples was allowed to react with the DNA for 2 hours at room temperature. The other set of samples was subjected to 30 cycles of heating and cooling by placing the samples in a thermal cycler [Perkin-Elmer Cetus DNA Thermal Cycler (Part No. N8010150); each cycle involved 93° C. for 30 seconds, 55° C. for 30 seconds and 72° C. for 1 minute]. When the DNA reactions were complete, all samples were analyzed for DNA-associated tritium counts (CPM) by following the flow chart outlined in FIG. 17.
The DNA-associated counts are given in terms of adducts per 100 base pairs in Table 10. For calculation purposes, these adducts are reported as if they represented monomers of AMDMIP. Regardless of the accuracy of this approximation, the process of irradiating ^3H-AMDMIP clearly results in a tritiated product which associates (i.e. binds) with DNA in the absence of subsequent activating wavelengths of electromagnetic radiation. The extent of the association is shown in Table 10 to depend upon the reaction conditions.

In assay [3] the test system is 115-mer (SK-38/SK-39 HIV system). Description: Sterilization sensitivity, 115-mer PCR product. The class given is biochemical. The settings on record: CE-III 15 minutes, 30 cycles. From the text: (§1) As discussed generally for sterilization, it is expected that the sensitivity of sterilization will depend upon both the modification density and the length of the PCR target sequences. In this experiment, the effect of modification density and target length on sterilization sensitivity were examined by sterilizing two different length PCR products with either AMIP or AMDMIP. Each isopsoralen was used at two different concentrations for the sterilization procedure to produce differing modification densities on PCR targets.
(§2) The two PCR targets used in these experiments were a 115-mer (SK-38/SK-39 HIV system) and a 500-mer. The 500-mer target is obtained from a PCR amplification of a lambda plasmid with primers PCR 01/02. This system is provided by Cetus/Perkin Elmer as a control in their commercial kits of PCR reagents (Catalogue No. N801-0055). For both of these systems equivalent copy numbers of each target were prepared in the following manner: An initial 30 cycle PCR reaction was carried out for each system with the appropriate primers and targets. Aliquots (approximately 10^5-10^6 target copies) of each of these reactions were transferred to a second set of PCR reactions. These second sets of PCR amplifications were carried out in the presence of α-32P-dCTP, again for 30 cycles. Aliquots of these reactions were removed and counted by liquid scintillation counting. With these numbers, the specific activity of the α-32P-dCTP, and the sequence of each of the PCR product oligonucleotides (115-mer and 500-mer), the concentrations of each of the two PCR product oligonucleotides in the second set of PCR reaction tubes was determined. Both the 115-mer and the 500-mer concentrations were then adjusted to exactly 1×10^−8M by the addition of additional Taq buffer. These stocks of equivalent copy number of PCR products were then used for further investigation. Each of the stock solutions then was subdivided into four reaction tubes. The reaction tubes were adjusted to contain the following: Tube 1, 100 μg/ml AMIP; Tube 2, 400 μg/ml AMIP; Tube 3, 100 μ/ml AMDMIP: and Tube 4, 400 μg/ml AMDMIP. Each of these samples were again split into two portions, one part being irradiated for 15 minutes at room temperature with the CE-III device and the other part kept in the dark. Serial dilutions of the irradiated and the unirradiated targets were then carried out on these samples for 30 cycles in the presence of α-32P-CTP. Aliquots of these samples were analyzed on denaturing polyacrylamide gels. The PCR product bands were visualized by autoradiography, cut, and counted in a liquid scintillation counter.

Assay [4] concerns 500-mer (lambda plasmid, primers PCR 01/02). Description: Sterilization sensitivity, 500-mer PCR product. The class given is biochemical. The settings on record: CE-III 15 minutes, 30 cycles.
From the text: as §1, §2

A further assay relates to E. coli polymerase I. The settings on record: nick-translating a double-stranded template; cited from earlier work.
Where [5] appears, read: tritiated drug placed inside dialysis bag.
Where [6] appears, read: tritiated drug placed outside dialysis bag.

Consider `Cc1oc2ccc3c(C)cc(=O)oc3c2c1CN` [AMDMIP, 4′-Aminomethyl-4,5′-dimethylisopsoralen], for which the Ka was 7.66 × 10^4 with calf thymus DNA [1] (setting [5]) and 1.07 × 10^5 in the assay with calf thymus DNA [1] (setting [6]). The “ADDUCTS PER 1000 BASE PAIRS” value in the assay on calf thymus DNA [2] (device CE-II, pre-irradiated 15 mins. without nucleic acid, dark reaction room temp.) amounted to 4.4; in the assay on calf thymus DNA [2] (device CE-III, pre-irradiated 15 mins. without nucleic acid, dark reaction thermally cycled), 24.3; in the assay on calf thymus DNA [2] (device PTI, pre-irradiated 15 mins. without nucleic acid, dark reaction thermally cycled), 5.7; with calf thymus DNA [2] (no irradiation, dark reaction room temp. 2 hours), 1.1; in the assay on calf thymus DNA [2] (no irradiation, dark reaction thermally cycled 30 cycles) it was 0.9. Besides, the “sterilization sensitivity (carryover sterilized)” value is given as “better sterilization agent” in assay [3] (100 μg/ml), ≥ 6×10^9 carryover molecules in assay [3] (400 μg/ml), ≥ 6×10^9 carryover molecules in assay [4] (100 μg/ml) and “no signal in the irradiated dilution series” in assay [4] (400 μg/ml).
For the compound `NCc1cc2occc2c2oc(=O)ccc12` [AMIP, 5-Aminomethylisopsoralen], in the assay with calf thymus DNA [1], the “Ka (DNA association constant) relative to AMDMIP” value turned out to be 28%. The Ka in the assay on calf thymus DNA [1] (setting [5]) is 2.96 × 10^4; in the assay on calf thymus DNA [1] (setting [6]), 2.21 × 10^4. Further, the “sterilization sensitivity (carryover sterilized)” value was “about 10,000 molecules of carryover” in assay [3] (100 μg/ml), “about 10^6 carryover molecules” in assay [3] (400 μg/ml), “more effectively sterilized than the 115-mer PCR product” in assay [4] (100 μg/ml) and ≥ 6×10^9 molecules of carryover in assay [4] (400 μg/ml).
For `Cc1cc2occc2c2oc(=O)ccc12` [MIP, 5-Methylisopsoralen], the Ka in the assay with calf thymus DNA [1] (setting [5]) is on record as 9.08 × 10^3; with calf thymus DNA [1] (setting [6]), 2.07 × 10^3. In the assay on E. coli polymerase I, the “inhibition of polymerase by covalently bound monoadducts” value is listed as “not inhibited”.
